Entries after “also recorded” stand apart in the source; their conditions may differ.
Assays:
[1] = test system: transient working neuronal assemblies in in vitro hippocampal slices; assay: Optical imaging with voltage sensitive dye Di-4-ANEPPS (ΔF/F) of paired-pulse stimulated hippocampal slices; type: cell-based, rat; conditions: for effect on population activity / prolongation of activation of the neuronal assembly after the second pulse / time for which neurons remain activated / return to resting baseline after peak activation following the second stimulating pulse: optical imaging; for effect on population activity / prolongation of activation of the neuronal assembly after the second pulse: vs control ACSF; for time for which neurons remain activated / return to resting baseline after peak activation following the second stimulating pulse: morphine 10-100 μM, gabapentin 100-150 μM, thiopental 80-150 μM, propofol 10-50 μM, control returns within 60 ms; for optical ΔF/F peak 2 value vs control / optical ΔF/F peak 1 value vs control: paired t-test n=6; for time from peak to half peak activity, peak 2 (t3−t4), vs control: ΔF/F data
Method: (§1) In the study, collective synchronised neuronal activity, i.e. working neuronal assemblies^3, were recorded while monitoring in parallel the underlying synaptic electrical activity (FIG. 1a). Accordingly, the use of the voltage sensitive dye, Di-4-ANEPPS, was combined with standard electrophysiological field potential recordings to measure the excitatory post-synaptic potentials (EPSPs). Under control conditions in physiological saline, electrical stimuli in a paired-pulse paradigm^18 were applied to the Schaffer Collaterals of in vitro hippocampal slices.
(§2) Following terminal anaesthesia using halothane, 400 μm transverse hippocampal slices from 2 week Wistar rats were obtained and left to rest for one hour in a high humidity chamber with oxygenated artificial cerebrospinal fluid (ACSF) (in mM: 124 NaCl, 22 NaHCO3, 10 glucose, 5 KCl, 2 CaCl2, 1.25 MgSO4, 1.25 NaH2PO4) before being submersed in dye solution (4% dye stock solution (in mM: 0.2 mM Di-4-ANEPPS (Molecular Probes, Oregon, USA) in 2.7% ethanol, 0.13% Cremaphor EL), 48% fetal bovine serum and 24% ACSF and 24% ACSF cellulose) for 25 minutes followed by a further one hour rest in the humidity chamber with oxygenated ACSF.
(§3) Electrical stimulation (paired pulse 8-10V, 60 ms interval, 0.1 ms duration) was generated by an isolated stimulator (Digitimer Ltd, UK) via a bipolar electrode (FHC, Maine, USA) and positioned just above the CA3 region. In this way, paired pulses were applied along the Shaffer Collaterals so as to elicit a spreading depolarising wave that formed from the point of stimulation and moved along the pathway towards the CA1 region. A halogen lamp provided the excitatory wavelengths for the dye (through a λ=530±10 nm filter) while the emission was captured on a 2 mm×3 mm CCD sensor (MiCAM01, BrainVision, Tokyo, Japan) through an absorption filter (λ=590 nm). Optical recordings were acquired at a rate of 0.7 ms frame^−1 for 682 frames. 16 optical recordings were averaged for each experimental condition to reduce the effects of dye bleaching and increase the signal-to-noise ratio. Analysis included ΔF/F calculations and a 5×5×3 Gaussian matrix filter (BrainVision Analysis software and Igor Pro 5, Wavemetrics, USA). As indicated above, such optical imaging was combined with standard electrophysiological field potential recordings to measure the excitory post synaptic potentials (EPSPs). […] All statistical comparisons were performed using student t-test of paired samples, n=6; 95% confidence interval.

[2] = test system: in vitro hippocampal slices (Schaffer Collaterals, excitatory post-synaptic potentials); assay: Electrophysiological field potential (EPSP) recordings in paired-pulse stimulated hippocampal slices; type: cell-based, rat; conditions: for time from peak to half peak activity, peak 2 (t3−t4), vs control: EPSP data; for paired-pulse facilitation in EPSP recordings, treatment vs control / EPSP peak 1 value vs control / EPSP peak 2 value vs control: morphine 10-100 μM, gabapentin 100-150 μM, thiopental 80-150 μM, propofol 10-50 μM; for EPSP peak 1 value vs control / EPSP peak 2 value vs control: paired t-test n=6
Method: as §1, §2, §3

Compound	effect on population activity / prolongation of activation of the neuronal assembly after the second pulse [1]	time for which neurons remain activated / return to resting baseline after peak activation following the second stimulating pulse [1]	optical ΔF/F peak 2 value vs control [1]	time from peak to half peak activity, peak 2 (t3−t4), vs control [1]	time from peak to half peak activity, peak 2 (t3−t4), vs control [2]	paired-pulse facilitation in EPSP recordings, treatment vs control [2]	EPSP peak 1 value vs control [2]	EPSP peak 2 value vs control [2]	paired-pulse facilitation in ΔF/F recordings, treatment vs control [1]	optical ΔF/F peak 1 value vs control [1]
NCC1(CC(=O)O)CCCCC1 [gabapentin]	not substantially altered; also recorded: no such effect	≤ 60 ms	significant difference	no significant difference	no significant difference	no significant difference	not significantly changed	not significantly changed		
CN1CC[C@]23c4c5ccc(O)c4O[C@H]2[C@@H](O)C=C[C@H]3[C@H]1C5 [morphine]		≤ 60 ms								
CC(C)c1cccc(C(C)C)c1O [propofol, 2,6-diisopropylphenol]	prolonged activation		significant reduction	very highly significant differences	low statistical difference	did not significantly differ	significantly reduced	significantly reduced	did not significantly change	did not differ significantly
CCCC(C)C1(CC)C(=O)NC(=S)NC1=O (stereo not shown) [thiopental, 5-ethyl-5-(1-methylbutyl)-2-thiobarbituricacid]	prolonged activation	up to 500 ms	significant reduction	highly significant	no significant change	abolished	significantly reduced	significantly reduced	abolished	did not differ significantly

From patent publication US20090226952A1, “SCREENING METHOD FOR COMPOUNDS WITH A[…]” (Isis Innovation Limited, priority 2005, published 2009)
